# Measurements taken from ChEMBL document CHEMBL1201862, “PubChem BioAssay data set” (2004).
#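 48-hour exposure; five concentrations; linearly interpolated endpoints. Abbreviation: GI50, concentration required for 50% inhibition of growth.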 Activity calls are given as the source filed them. Rule as the data show it: active = GI50 up to about 1.1 µM and inactive = higher.
# How the values were obtained:
# Experiment in all cases: NCI anticancer screen, dose series, 48 h
# A549 = system: A549
# ACHN = system: ACHN
# BT-549 = system: BT-549
# CAKI-1 = system: CAKI-1
# EKVX = system: EKVX
# HCC 2998 = system: HCC 2998
# HL-60 = system: HL-60
# HOP-62 = system: HOP-62
# HT-29 = system: HT-29
# M14 = system: M14
# NCI-H226 = system: NCI-H226
# NCI-H23 = system: NCI-H23
# OVCAR-3 = system: OVCAR-3
# RXF 393 = system: RXF 393
# SF-295 = system: SF-295
# SK-MEL-28 = system: SK-MEL-28
# SK-MEL-2 = system: SK-MEL-2
# SR = system: SR
# UACC-62 = system: UACC-62
# UO-31 = system: UO-31
SMILES,GI50 (A549),GI50 (ACHN),GI50 (BT-549),GI50 (CAKI-1),GI50 (EKVX),GI50 (HCC 2998),GI50 (HL-60),GI50 (HOP-62),GI50 (HT-29),GI50 (M14),GI50 (NCI-H226),GI50 (NCI-H23),GI50 (OVCAR-3),GI50 (RXF 393),GI50 (SF-295),GI50 (SK-MEL-28),GI50 (SK-MEL-2),GI50 (SR),GI50 (UACC-62),GI50 (UO-31)
COc1nc(N)nc2nc[nH]c12,> 500 µM (inactive),328 µM (inactive),232 µM (inactive),162 µM (inactive),> 387 µM (inactive),> 500 µM (inactive),383 µM (inactive),172 µM (inactive),495 µM (inactive),478 µM (inactive),318 µM (inactive),> 500 µM (inactive),497 µM (inactive),313 µM (inactive),> 500 µM (inactive),> 419 µM (inactive),460 µM (inactive),313 µM (inactive),160 µM (inactive),239 µM (inactive)
CO/C(=N/N1CC1C(F)(F)F)c1ccncc1 (stereo unspecified),–,–,43.3 µM (inactive),> 100 µM (inactive),–,–,> 100 µM (inactive),> 100 µM (inactive),> 100 µM (inactive),> 100 µM (inactive),> 100 µM (inactive),> 100 µM (inactive),> 100 µM (inactive),45.1 µM (inactive),> 100 µM (inactive),> 100 µM (inactive),> 100 µM (inactive),> 100 µM (inactive),> 100 µM (inactive),46.8 µM (inactive)
Clc1ccc2c(c1)CC1C[N+]3=C(CCCCC3)C1=C2 (stereo unspecified),30.3 µM (inactive),> 100 µM (inactive),26.5 µM (inactive),> 100 µM (inactive),45.6 µM (inactive),–,> 100 µM (inactive),> 100 µM (inactive),37.8 µM (inactive),57.3 µM (inactive),69.7 µM (inactive),37.4 µM (inactive),59 µM (inactive),> 100 µM (inactive),64.1 µM (inactive),> 100 µM (inactive),28.8 µM (inactive),–,> 100 µM (inactive),> 100 µM (inactive)
C1CCC2(CC1)O[C@@H]1[C@@H](O2)[C@@H](O[C@H]2O[C@@H]3COC4(CCCCC4)O[C@H]3[C@@H]3OC4(CCCCC4)O[C@@H]23)O[C@@H]2COC3(CCCCC3)O[C@@H]12,> 100 µM (inactive),> 100 µM (inactive),> 100 µM (inactive),> 100 µM (inactive),> 100 µM (inactive),–,11.4 µM (inactive),> 100 µM (inactive),> 100 µM (inactive),> 100 µM (inactive),–,> 100 µM (inactive),> 100 µM (inactive),> 100 µM (inactive),> 100 µM (inactive),> 100 µM (inactive),> 100 µM (inactive),–,> 100 µM (inactive),> 100 µM (inactive)
Cc1c(Cl)cccc1NC(=O)/C=C/c1ccccc1,> 100 µM (inactive),89.5 µM (inactive),> 100 µM (inactive),16.3 µM (inactive),55.8 µM (inactive),> 100 µM (inactive),> 100 µM (inactive),> 100 µM (inactive),> 100 µM (inactive),> 100 µM (inactive),60.1 µM (inactive),> 100 µM (inactive),> 100 µM (inactive),–,> 100 µM (inactive),88.5 µM (inactive),> 100 µM (inactive),50.7 µM (inactive),> 100 µM (inactive),–
Cc1ccc([N+](=O)[O-])cc1S(=O)(=O)Nc1ccc(C2=NNC(c3cccs3)C2)cc1 (stereo unspecified),22.9 µM (inactive),20.7 µM (inactive),23.2 µM (inactive),30.5 µM (inactive),18.8 µM (inactive),30.8 µM (inactive),0.0627 µM (active),24.3 µM (inactive),29.9 µM (inactive),25.5 µM (inactive),49.7 µM (inactive),22.2 µM (inactive),12.6 µM (inactive),13.6 µM (inactive),6.67 µM (inactive),48.5 µM (inactive),33.7 µM (inactive),20 µM (inactive),14.5 µM (inactive),5.32 µM (inactive)
N#CC(=N)c1ncn(-c2ccccc2N)c1N,> 100 µM (inactive),> 100 µM (inactive),> 100 µM (inactive),> 100 µM (inactive),> 100 µM (inactive),> 100 µM (inactive),> 100 µM (inactive),> 100 µM (inactive),> 100 µM (inactive),> 100 µM (inactive),> 100 µM (inactive),> 100 µM (inactive),> 100 µM (inactive),–,> 100 µM (inactive),> 100 µM (inactive),> 100 µM (inactive),> 100 µM (inactive),> 100 µM (inactive),> 100 µM (inactive)
Fc1c(F)c(F)c(CSc2nc3ccccc3[nH]2)c(F)c1F,> 100 µM (inactive),> 100 µM (inactive),> 100 µM (inactive),> 100 µM (inactive),> 100 µM (inactive),> 100 µM (inactive),> 100 µM (inactive),> 100 µM (inactive),> 100 µM (inactive),> 100 µM (inactive),> 100 µM (inactive),> 100 µM (inactive),> 100 µM (inactive),> 100 µM (inactive),> 100 µM (inactive),> 100 µM (inactive),> 100 µM (inactive),59 µM (inactive),> 100 µM (inactive),> 100 µM (inactive)
COc1ccc2c(C)cc(N/N=C/c3sccc3C)nc2c1,13.3 µM (inactive),21.7 µM (inactive),13.1 µM (inactive),–,> 10 µM (inactive),12.6 µM (inactive),46.8 µM (inactive),15.2 µM (inactive),2.81 µM (inactive),11.8 µM (inactive),10 µM (inactive),14.7 µM (inactive),2.99 µM (inactive),14.9 µM (inactive),14.7 µM (inactive),14.8 µM (inactive),15.6 µM (inactive),22.9 µM (inactive),15.9 µM (inactive),17.1 µM (inactive)
O=C(NNC(=S)NCc1ccccc1)C12CC3CC(CC(C3)C1)C2,–,54.7 µM (inactive),> 100 µM (inactive),–,–,69.8 µM (inactive),22.4 µM (inactive),75.2 µM (inactive),45.3 µM (inactive),74.3 µM (inactive),> 100 µM (inactive),74.6 µM (inactive),54.6 µM (inactive),89.1 µM (inactive),34.4 µM (inactive),67.6 µM (inactive),99.1 µM (inactive),9.33 µM (inactive),66.7 µM (inactive),50.1 µM (inactive)
CN(C)C/C=C(/c1ccc(Br)cc1)c1cccnc1,81.8 µM (inactive),> 100 µM (inactive),79.4 µM (inactive),92.9 µM (inactive),> 100 µM (inactive),15.7 µM (inactive),0.0165 µM (active),45 µM (inactive),78.5 µM (inactive),20.2 µM (inactive),> 100 µM (inactive),> 100 µM (inactive),> 100 µM (inactive),30.6 µM (inactive),22.2 µM (inactive),17.9 µM (inactive),19.8 µM (inactive),34.8 µM (inactive),19.6 µM (inactive),42.8 µM (inactive)
c1ccc(/N=C2/SC3=Nc4cccc5cccc(c45)N3/C2=N/c2ccccc2)cc1,–,–,> 100 µM (inactive),> 100 µM (inactive),–,> 100 µM (inactive),> 100 µM (inactive),> 100 µM (inactive),> 100 µM (inactive),> 100 µM (inactive),> 100 µM (inactive),> 100 µM (inactive),> 100 µM (inactive),> 100 µM (inactive),> 100 µM (inactive),> 100 µM (inactive),> 100 µM (inactive),> 100 µM (inactive),> 100 µM (inactive),> 100 µM (inactive)
